Patent US9242945B2, “Substituted 2-benzylidene-2H-benzo[b][1,4]thiazin-3(4H)-ones, derivatives thereof, and therapeutic uses thereof” (TEMPLE UNIVERSITY—OF THE COMMONWEALTH SYSTEM OF HIGHER …, priority 2011, dated 2016)

Legend:
PC3 = experiment: Cancer cell cytotoxicity assay, PC3; format: cell-based; conditions: Homo sapiens, PC-3; PC3, Prostate Cancer
Description: (§1) The effect of the compounds of the invention on tumor cells was determined by the assay described by Latham et al., Oncogene 12:827-837 (1996). Tumor cells K562 (chronic myelogenous leukemia; leukemia cell line +ve for Bcr-Abl) or DU145 (prostate cancer) were plated in 12-well dishes at a cell density of 2.5×10^4 cells well. The plated cells were treated 24 hours later with a compound of the invention dissolved in DMSO at multiple concentrations ranging from 0.01 μM to 100 μM. The plates were examined 96 hours later under an inverted microscope, Olympus CK-2 using a 10× objective, and compound activity was noted by physical observation. When necessary, the total number of viable cells was determined by trypsinizing the wells and counting the number of viable cells, as determined by trypan blue exclusion, using a hemacytometer. Where “Lower” and “Upper” value are provided in Table 5, the IC50 was determined to be within that range. […]
(§2) The cytotoxicity of Compound 42, (Z)-6-((2,6-dichlorobenzyl)sulfonyl)-2-(4-hydroxy-3-nitrobenzylidene)-2H-benzo[b][1,4]thiazin-3(4H)-one, was determined according the assay method of Example 7 on the prostate (androgen dependent or independent), breast and pancreatic cancer cell lines listed in Table 6A, below, and the additional cell lines listed in Table 6B, below. […]

GRANTA = experiment: Cancer cell cytotoxicity assay, GRANTA; format: cell-based; conditions: Mantle cell lymphoma
Description: as §1, §2

CDK9 = target: T1, CDK9 (Homo sapiens, UniProt P50750); experiment: CDK9 inhibition (32P-ATP kinase assay); format: biochemical; conditions: PDKtide substrate, 20 μM cold ATP
T1 construct: CDK9 (human full length protein; Invitrogen PV4335); purchased Invitrogen PV4335
T1 sequence (P50750 whole entry): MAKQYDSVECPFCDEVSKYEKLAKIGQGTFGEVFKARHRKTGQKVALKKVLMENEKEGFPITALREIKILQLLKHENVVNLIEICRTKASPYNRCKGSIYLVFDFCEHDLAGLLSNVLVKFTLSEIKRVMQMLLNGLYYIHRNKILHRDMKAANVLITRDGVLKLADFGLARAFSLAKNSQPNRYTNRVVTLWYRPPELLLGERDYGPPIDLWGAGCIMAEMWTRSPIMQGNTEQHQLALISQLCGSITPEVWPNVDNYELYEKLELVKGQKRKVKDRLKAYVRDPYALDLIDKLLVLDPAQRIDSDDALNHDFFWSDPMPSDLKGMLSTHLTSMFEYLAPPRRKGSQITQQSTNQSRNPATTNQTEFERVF
T1 sequence (O75909 whole entry partner): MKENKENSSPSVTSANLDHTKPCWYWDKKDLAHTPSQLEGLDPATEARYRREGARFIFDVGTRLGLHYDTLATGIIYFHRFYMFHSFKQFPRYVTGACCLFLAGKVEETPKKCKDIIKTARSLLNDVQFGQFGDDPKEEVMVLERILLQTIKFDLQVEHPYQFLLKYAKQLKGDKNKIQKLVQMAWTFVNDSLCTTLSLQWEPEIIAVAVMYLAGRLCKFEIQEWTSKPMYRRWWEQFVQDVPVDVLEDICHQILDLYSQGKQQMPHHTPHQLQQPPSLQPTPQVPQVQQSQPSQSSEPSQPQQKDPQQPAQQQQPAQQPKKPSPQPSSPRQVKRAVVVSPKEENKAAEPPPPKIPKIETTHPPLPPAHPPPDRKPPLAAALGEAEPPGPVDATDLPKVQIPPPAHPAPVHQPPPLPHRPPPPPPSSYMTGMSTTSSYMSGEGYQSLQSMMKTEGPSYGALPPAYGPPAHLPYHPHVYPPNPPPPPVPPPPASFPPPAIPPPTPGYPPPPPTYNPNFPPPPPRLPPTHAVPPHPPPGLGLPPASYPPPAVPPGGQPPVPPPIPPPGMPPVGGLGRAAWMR
Description: The ability of Compound 42 to inhibit the activity of the kinase CDK9 was determined as follows. Twenty-five nanograms of CDK9 (human full length protein; Invitrogen PV4335) was diluted into kinase buffer (20 mM Tris pH 7.5, 10 mM MgCl2, 0.01% NP-40, 1 mM EGTA, 2 mM DTT) and incubated with varying concentrations of Compound 42 at room temperature for 30 minutes. The kinase reactions were initiated by the addition of 20 μM of CDK9/Cyclin K specific synthetic peptide substrate (PDKtide, P10-58, SignalChem), 20 μM cold ATP, and 20 μCi γ-32P-ATP. The reactions were incubated at 30° C. for 20 minutes and terminated by the addition of 0.5M o-Phosphoric acid. 10 μl of the reaction mixture was spotted on a P-30 Filtermat (PerkinElmer) and developed using autoradiography or phosphorimaging.

[1] = test system: K562 (chronic myelogenous leukemia; leukemia cell line +ve for Bcr-Abl); experiment: Cytotoxicity assay, K562 tumor cells; format: cell-based; conditions: Homo sapiens
Description: The effect of the compounds of the invention on tumor cells was determined by the assay described by Latham et al., Oncogene 12:827-837 (1996). Tumor cells K562 (chronic myelogenous leukemia; leukemia cell line +ve for Bcr-Abl) or DU145 (prostate cancer) were plated in 12-well dishes at a cell density of 2.5×10^4 cells well. The plated cells were treated 24 hours later with a compound of the invention dissolved in DMSO at multiple concentrations ranging from 0.01 μM to 100 μM. The plates were examined 96 hours later under an inverted microscope, Olympus CK-2 using a 10× objective, and compound activity was noted by physical observation. When necessary, the total number of viable cells was determined by trypsinizing the wells and counting the number of viable cells, as determined by trypan blue exclusion, using a hemacytometer. Where “Lower” and “Upper” value are provided in Table 5, the IC50 was determined to be within that range. When only a “Lower” value is provided and no “Upper” value is listed, the IC50 was that value, or less than or greater than that value, as set forth in the Table.
The cytotoxicity of Compound 42, (Z)-6-((2,6-dichlorobenzyl)sulfonyl)-2-(4-hydroxy-3-nitrobenzylidene)-2H-benzo[b][1,4]thiazin-3(4H)-one, was determined according the assay method of Example 7 on the prostate (androgen dependent or independent), breast and pancreatic cancer cell lines listed in Table 6A, below, and the additional cell lines listed in Table 6B, below. The human mesenchymal stem cell line HMSC.hTERT and normal human fibroblast cell line HFL was included in the test.

LnCap = experiment: Cancer cell cytotoxicity assay, LnCap; format: cell-based; conditions: Homo sapiens, Prostate Cancer (Androgen Dependent)
Description: as §1, §2

MDA.MB-231 = experiment: Cancer cell cytotoxicity assay, MDA.MB-231; format: cell-based; conditions: Homo sapiens; MDA.MB-231, Breast Cancer
Description: as §1, §2

MiaPaca 2 = experiment: Cancer cell cytotoxicity assay, MiaPaca 2; format: cell-based; conditions: Homo sapiens, MIA PaCa-2; MiaPaca 2, Pancreatic Cancer
Description: as §1, §2

U266B1 = experiment: Cancer cell cytotoxicity assay, U266B1; format: cell-based; conditions: U266B1, Multiple Myeloma
Description: as §1, §2

MCF10A = experiment: Cytotoxicity assay, MCF10A; format: cell-based; conditions: Homo sapiens, MCF-10A, Normal Breast
Description: as §1, §2

VCAP = experiment: Cancer cell cytotoxicity assay, VCAP; format: cell-based; conditions: Homo sapiens, Prostate Cancer
Description: as §1, §2

Z138C = experiment: Cancer cell cytotoxicity assay, Z138C; format: cell-based; conditions: Mantle cell lymphoma
Description: as §1, §2

CK2α = target: T2, CK2α (Homo sapiens, UniProt P68400); experiment: Casein kinase 2 inhibition, CK2α subunit (32P-ATP kinase assay); format: biochemical; conditions: 20 μM cold ATP; 30 min preincubation, 20 min at 30° C.
T2 construct: CK2α (human full length protein)
T2 sequence (P68400 3-339 limits assumed): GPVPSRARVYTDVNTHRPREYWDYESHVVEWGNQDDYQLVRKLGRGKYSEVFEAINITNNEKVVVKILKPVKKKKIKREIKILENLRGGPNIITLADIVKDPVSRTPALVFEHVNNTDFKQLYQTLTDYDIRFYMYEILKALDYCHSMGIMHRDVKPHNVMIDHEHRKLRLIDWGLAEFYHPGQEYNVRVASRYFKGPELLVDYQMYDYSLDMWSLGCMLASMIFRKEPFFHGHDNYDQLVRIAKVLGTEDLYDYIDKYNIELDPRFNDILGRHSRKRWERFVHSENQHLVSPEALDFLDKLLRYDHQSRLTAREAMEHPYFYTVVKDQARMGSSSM
Description: (§3) The ability of Compound 42 to inhibit the activity of casein kinase 2 (CK2) was determined as follows using the catalytic CK2 subunits CK2α and CK2α2. Two and one half nanograms of CK2α (human full length protein; Invitrogen PV3248), 2.5 ng of a CK2α form containing amino acids 3-339) or 10 ng of CK2α2 (human full length protein; Invitrogen PV3624) was diluted into kinase buffer (20 mM Tris pH 7.5, 10 mM MgCl2, 0.01% NP-40, 1 mM EGTA, 2 mM DTT) and incubated with varying concentrations of Compound 42 at room temperature for 30 minutes. Kinase reactions were initiated by the addition of 1 μg of CK2 substrate α-synuclein or 40 μM CK2 synthetic peptide substrate (AnaSpec, San Jose, Calif.), 20 μM cold ATP, and 20 μCi γ-^32P-ATP. The reactions were incubated at 30° C. for 20 minutes, terminated by the addition of 2× Laemmle sample buffer, boiled for 2 minutes, resolved by 12% acrylamide SDS-PAGE, and subjected to autoradiography.

BT-474 = experiment: Cancer cell cytotoxicity assay, BT-474; format: cell-based; conditions: Homo sapiens; BT-474, Breast Cancer
Description: as §1, §2

22Rv1 = experiment: Cancer cell cytotoxicity assay, 22Rv1; format: cell-based; conditions: Homo sapiens; 22Rv1, Prostate Cancer
Description: as §1, §2

CK2α2 = target: T3, CK2α2 (Homo sapiens, UniProt P19784); experiment: Casein kinase 2 inhibition, CK2α2 subunit (32P-ATP kinase assay); format: biochemical; conditions: 20 μM cold ATP; 30 min preincubation, 20 min at 30° C.
T3 construct: CK2α2 (human full length protein; Invitrogen PV3624); purchased Invitrogen PV3624
T3 sequence (P19784 whole entry): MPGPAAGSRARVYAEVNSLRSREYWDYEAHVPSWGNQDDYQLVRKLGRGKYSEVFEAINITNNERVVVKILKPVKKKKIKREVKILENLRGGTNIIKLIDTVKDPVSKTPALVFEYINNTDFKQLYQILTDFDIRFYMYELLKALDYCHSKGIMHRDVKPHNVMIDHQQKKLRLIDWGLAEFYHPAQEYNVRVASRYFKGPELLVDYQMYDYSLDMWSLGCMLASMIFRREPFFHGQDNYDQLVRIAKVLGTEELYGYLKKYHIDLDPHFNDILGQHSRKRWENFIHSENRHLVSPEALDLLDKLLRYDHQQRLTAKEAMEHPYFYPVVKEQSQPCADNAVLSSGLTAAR
Description: as §3

MDA.MB-468 = experiment: Cancer cell cytotoxicity assay, MDA.MB-468; format: cell-based; conditions: Homo sapiens; MDA.MB-468, Breast Cancer
Description: as §1, §2

MCF-7 = experiment: Cancer cell cytotoxicity assay, MCF-7; format: cell-based; conditions: Homo sapiens, MCF7; MCF-7, Breast Cancer
Description: as §1, §2

HFL = experiment: Cytotoxicity assay, normal human fibroblast cell line HFL; format: cell-based
Description: as §1, §2

A549 = experiment: Cancer cell cytotoxicity assay, A549; format: cell-based; conditions: Homo sapiens; A549, Non-small cell lung cancer
Description: as §1, §2

H23 = experiment: Cancer cell cytotoxicity assay, H23; format: cell-based; conditions: Homo sapiens, NCI-H23; H23, Non-small cell lung cancer
Description: as §1, §2

Q: With `O=C1Nc2cc(S(=O)(=O)Cc3c(Cl)cccc3Cl)ccc2S/C1=C\c1ccc(O)c([N+](=O)[O-])c1` [Compound 42, (Z)-6-((2,6-dichlorobenzyl)sulfonyl)-2-(4-hydroxy-3-nitrobenzylidene)-2H-benzo[b][1,4]thiazin-3(4H)-one] as the compound, how does the GI50 (PC3) read?
A: The GI50 was 160 nM.

Q: And the GI50 (GRANTA)?
A: The GI50 was 80 nM.

Q: And the IC50 (CDK9)?
A: The IC50 was 93.7 nM.

Q: What about the IC50 ([1]; K562, 96 h treatment, lower limit of the IC50 range, or the IC50 itself (or its bound) where no Upper value is listed, read-out: K562 IC50 (μm) Lower (μm)) of the same compound?
A: Its IC50 is 100 nM.

Q: What about the GI50 ([1]; K562, Chronic myelogenous leukemia) of the same compound?
A: The GI50 was 160 nM.

Q: What about the GI50 (LnCap) of the same compound?
A: Its GI50 is 250 nM.

Q: And the GI50 (MDA.MB-231)?
A: The GI50 was 120 nM.

Q: And the GI50 (MiaPaca 2)?
A: Its GI50 is 90 nM.

Q: And the GI50 (U266B1)?
A: Its GI50 is 100 nM.

Q: And the GI50 (MCF10A)?
A: Its GI50 is 2500 nM.

Q: And the GI50 (VCAP)?
A: The GI50 was 180 nM.

Q: And the GI50 (Z138C)?
A: The GI50 was 70 nM.

Q: And the IC50 (CK2α)?
A: Its IC50 is 362 nM.

Q: And the GI50 (BT-474)?
A: Its GI50 is 200 nM.

Q: What about the GI50 (22Rv1) of the same compound?
A: Its GI50 is 500 nM.

Q: What about the IC50 (CK2α2) of the same compound?
A: The IC50 was 83.1 nM.

Q: And the GI50 (MDA.MB-468)?
A: Its GI50 is 200 nM.

Q: What about the GI50 (MCF-7) of the same compound?
A: The GI50 was 1000 nM.

Q: What about the “cell death in the normal human fibroblast cell line” value (HFL) of the same compound?
A: Its value is “did not cause cell death”.

Q: And the GI50 (HFL; Homo sapiens, Normal Fibroblast)?
A: The GI50 was > 10000 nM.

Q: And the GI50 (A549)?
A: The GI50 was 160 nM.

Q: What about the GI50 (H23) of the same compound?
A: The GI50 was 65 nM.
